Reference: US20250090540A1, “PI3K-ALPHA INHIBITORS AND METHODS OF USE THEREOF” (Relay Therapeutics, Inc., priority 2021, published 2025)

Columns and labels:
H1047R PIK3CA enzyme = H1047R PIK3CA enzyme (Homo sapiens, UniProt P42336, H1047R); test: ADP-Glo Biochemical PIK3CA Kinase Assay
cells = settings: Homo sapiens, MCF-10A, read-out: MCF10A I50

H1047R PIK3CA enzyme, sequence (P42336 whole entry H1047R): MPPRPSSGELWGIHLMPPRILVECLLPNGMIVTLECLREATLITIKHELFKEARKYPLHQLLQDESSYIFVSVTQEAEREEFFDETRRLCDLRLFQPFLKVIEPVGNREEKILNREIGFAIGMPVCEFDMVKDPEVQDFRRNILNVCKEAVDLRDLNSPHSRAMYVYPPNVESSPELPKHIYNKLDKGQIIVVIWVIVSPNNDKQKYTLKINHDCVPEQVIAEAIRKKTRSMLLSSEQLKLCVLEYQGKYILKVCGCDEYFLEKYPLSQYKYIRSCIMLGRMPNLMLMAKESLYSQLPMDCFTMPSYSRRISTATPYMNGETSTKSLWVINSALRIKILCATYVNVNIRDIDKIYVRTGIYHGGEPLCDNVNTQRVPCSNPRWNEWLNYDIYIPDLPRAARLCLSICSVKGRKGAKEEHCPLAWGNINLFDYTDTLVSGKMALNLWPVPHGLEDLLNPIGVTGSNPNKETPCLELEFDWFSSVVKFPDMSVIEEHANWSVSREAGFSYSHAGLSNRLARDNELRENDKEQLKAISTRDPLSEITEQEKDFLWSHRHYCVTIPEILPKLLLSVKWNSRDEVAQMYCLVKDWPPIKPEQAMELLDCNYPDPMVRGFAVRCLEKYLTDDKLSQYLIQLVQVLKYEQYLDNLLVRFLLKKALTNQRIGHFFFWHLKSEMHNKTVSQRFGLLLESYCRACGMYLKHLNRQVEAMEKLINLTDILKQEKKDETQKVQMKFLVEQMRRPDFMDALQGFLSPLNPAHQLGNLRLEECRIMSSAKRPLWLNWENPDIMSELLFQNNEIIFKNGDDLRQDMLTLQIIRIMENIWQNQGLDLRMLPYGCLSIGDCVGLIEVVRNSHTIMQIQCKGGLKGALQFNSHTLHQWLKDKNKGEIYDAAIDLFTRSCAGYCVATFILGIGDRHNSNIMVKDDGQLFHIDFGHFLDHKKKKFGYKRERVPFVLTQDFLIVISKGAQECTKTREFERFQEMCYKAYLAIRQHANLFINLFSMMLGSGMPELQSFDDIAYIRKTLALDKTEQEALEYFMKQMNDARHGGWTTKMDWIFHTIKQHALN
H1047R PIK3CA enzyme, sequence (P27986 whole entry partner): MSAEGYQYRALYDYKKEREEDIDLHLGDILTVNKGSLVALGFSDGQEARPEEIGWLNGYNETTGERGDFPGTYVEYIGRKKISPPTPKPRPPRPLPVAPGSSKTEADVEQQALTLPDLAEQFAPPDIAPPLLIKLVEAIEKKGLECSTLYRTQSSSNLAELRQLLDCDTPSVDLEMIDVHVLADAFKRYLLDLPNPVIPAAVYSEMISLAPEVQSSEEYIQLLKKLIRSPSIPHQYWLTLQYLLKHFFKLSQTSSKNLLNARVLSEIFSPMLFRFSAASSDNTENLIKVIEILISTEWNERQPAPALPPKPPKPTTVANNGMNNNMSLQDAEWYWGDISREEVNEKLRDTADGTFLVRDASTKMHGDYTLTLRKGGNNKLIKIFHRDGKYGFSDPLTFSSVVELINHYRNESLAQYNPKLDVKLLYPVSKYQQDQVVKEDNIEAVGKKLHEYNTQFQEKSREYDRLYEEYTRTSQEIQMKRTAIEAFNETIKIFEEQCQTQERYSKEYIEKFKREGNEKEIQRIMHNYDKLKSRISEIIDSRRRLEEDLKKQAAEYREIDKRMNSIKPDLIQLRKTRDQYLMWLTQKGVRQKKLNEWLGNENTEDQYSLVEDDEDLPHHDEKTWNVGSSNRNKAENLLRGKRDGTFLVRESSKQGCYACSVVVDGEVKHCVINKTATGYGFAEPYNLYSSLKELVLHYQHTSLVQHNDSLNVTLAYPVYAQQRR

Row | SMILES | IC50 (H1047R PIK3CA enzyme) [nM] | IC50 (cells) [µM]
1 | Cc1ccccc1Nc1ncc(C(=O)Nc2cccnc2)cc1NC(=O)c1cc(F)cc(C(F)(F)F)c1 [I-239] | 100 to 500 | 1 to 5
2 | Cc1ccccc1Nc1ncc(C(=O)Nc2ccnnc2)cc1NC(=O)c1cc(F)cc(C(F)(F)F)c1 [I-240] | 100 to 500 | < 1
3 | O=C(NC1CS(=O)(=O)C1)c1cnc(N2CCOc3ccccc32)c(NC(=O)c2csc3ccccc23)c1 [I-245] | 100 to 500 | 5 to 10
4 | Cc1ccccc1Nc1ncc(C(=O)NC2CCCS(=O)(=O)C2)cc1NC(=O)c1cc(F)cc(C(F)(F)F)c1 (centres unmarked) [I-246] | 100 to 500 | < 1
5 | Cc1ccccc1Nc1ncc(C(=O)NC2CCS(=O)(=O)C2)cc1NC(=O)c1cc(F)cc(C(F)(F)F)c1 (centres unmarked) [I-247] | 100 to 500 | < 1
6 | Cc1ccccc1Nc1ncc(C(=O)NC2CC(F)(F)C2)cc1NC(=O)c1csc2ccccc12 [I-248] | 100 to 500 | 1 to 5
7 | CNC(=O)c1cnc(Nc2cccc(F)c2Cl)c(NC(=O)c2cc(F)cc(C(F)(F)F)c2)c1 [I-249] | 100 to 500 | 1 to 5
8 | O=C(NC1(c2cccnc2)CC1)c1cnc(N2CCOc3ccccc32)c(NC(=O)c2csc3ccccc23)c1 [I-256] | 100 to 500 | 1 to 5
9 | Cc1ccccc1Nc1ncc(C(=O)NC2CC3(COC3)C2)cc1NC(=O)c1cc(F)cc(C(F)(F)F)c1 [I-267] | 100 to 500 | < 1
10 | Cc1ccccc1Nc1ncc(C(=O)NC2CC(O)C2)cc1NC(=O)c1cc(F)cc(C(F)(F)F)c1 (centres unmarked) [I-274] | 100 to 500 | 1 to 5
11 | Cc1ccccc1Nc1ncc(C(=O)NC2CCC(O)C2)cc1NC(=O)c1cc(F)cc(C(F)(F)F)c1 (centres unmarked) [I-275] | 100 to 500 | 1 to 5
12 | Cc1ccccc1Nc1ncc(C(=O)NC2CCC(O)CC2)cc1NC(=O)c1cc(F)cc(C(F)(F)F)c1 (centres unmarked) [I-276] | 100 to 500 | 1 to 5
13 | Cc1ccccc1Nc1cc(=O)n(Cc2ccccc2C#N)cc1NC(=O)c1csc2ccccc12 [I-279] | 100 to 500 | 10 to 36
14 | CNC(=O)c1cnc(Nc2ccc(F)cc2)c(NC(=O)c2cc(F)cc(C(F)(F)F)c2)c1 [I-285] | 500 to 1000 | 10 to 36
15 | CNC(=O)c1cnc(Nc2cccc(N)c2)c(NC(=O)c2cc(F)cc(C(F)(F)F)c2)c1 [I-286] | 1000 to 10000 | 10 to 36
16 | CNC(=O)c1cnc(Nc2cccc(Cl)c2)c(NC(=O)c2cc(F)cc(C(F)(F)F)c2)c1 [I-287] | 1000 to 10000 | 36 to 100
17 | CCOc1ccccc1Nc1ncc(C(=O)NC)cc1NC(=O)c1cc(F)cc(C(F)(F)F)c1 [I-288] | 10000 to 100000 | 36 to 100

Row | SMILES | IC50 (H1047R PIK3CA enzyme) [nM] | IC50 (cells) [µM]
18 | CNC(=O)c1cnc(Nc2cn(C)nc2C)c(NC(=O)c2cc(F)cc(C(F)(F)F)c2)c1 [I-289] | 10000 to 100000 | 36 to 100
19 | CNC(=O)c1cnc(Nc2cccc(Cl)c2C)c(NC(=O)c2cc(F)cc(C(F)(F)F)c2)c1 [I-290] | 1000 to 10000 | 36 to 100
20 | CNC(=O)c1cnc(Nc2ncco2)c(NC(=O)c2cc(F)cc(C(F)(F)F)c2)c1 [I-291] | 10000 to 100000 | 36 to 100
21 | CNC(=O)c1cnc(Nc2cccc(C(F)(F)F)c2)c(NC(=O)c2cc(F)cc(C(F)(F)F)c2)c1 [I-292] | 1000 to 10000 | 10 to 36
22 | CNC(=O)c1cnc(Nc2ccccc2Cl)c(NC(=O)c2cc(F)cc(C(F)(F)F)c2)c1 [I-293] | 100 to 500 | 1 to 5
23 | CNC(=O)c1cnc(Nc2cccc(C)c2Cl)c(NC(=O)c2cc(F)cc(C(F)(F)F)c2)c1 [I-294] | 1000 to 10000 | 36 to 100
24 | CNC(=O)c1cnc(Nc2ccc(C#N)cc2)c(NC(=O)c2cc(F)cc(C(F)(F)F)c2)c1 [I-295] | 1000 to 10000 | 36 to 100
25 | CNC(=O)c1cnc(Nc2cccc(F)c2F)c(NC(=O)c2cc(F)cc(C(F)(F)F)c2)c1 [I-296] | 100 to 500 | 5 to 10
26 | CNC(=O)c1cnc(Nc2cccc(C(C)(C)C)c2)c(NC(=O)c2cc(F)cc(C(F)(F)F)c2)c1 [I-297] | 1000 to 10000 | 36 to 100
27 | CNC(=O)c1cnc(Nc2ccccc2C(C)C)c(NC(=O)c2cc(F)cc(C(F)(F)F)c2)c1 [I-298] | 1000 to 10000 | 36 to 100
28 | CNC(=O)c1cnc(Nc2nccs2)c(NC(=O)c2cc(F)cc(C(F)(F)F)c2)c1 [I-299] | 10000 to 100000 | 36 to 100
29 | CNC(=O)c1cnc(Nc2ccccc2F)c(NC(=O)c2cc(F)cc(C(F)(F)F)c2)c1 [I-300] | 1000 to 10000 | 36 to 100
30 | CNC(=O)c1cnc(Nc2nc(C)c(C)s2)c(NC(=O)c2cc(F)cc(C(F)(F)F)c2)c1 [I-301] | 500 to 1000 | 10 to 36
31 | CNC(=O)c1cnc(Nc2cccc(F)c2C)c(NC(=O)c2cc(F)cc(C(F)(F)F)c2)c1 [I-302] | 500 to 1000 | 5 to 10
32 | CNC(=O)c1cnc(Nc2cccc(F)c2OC)c(NC(=O)c2cc(F)cc(C(F)(F)F)c2)c1 [I-303] | 1000 to 10000 | 36 to 100
33 | CNC(=O)c1cnc(Nc2nc(C)cs2)c(NC(=O)c2cc(F)cc(C(F)(F)F)c2)c1 [I-304] | 1000 to 10000 | 36 to 100
34 | CNC(=O)c1cnc(Nc2nn(C)cc2Br)c(NC(=O)c2cc(F)cc(C(F)(F)F)c2)c1 [I-305] | 10000 to 100000 | 36 to 100
